Reference: US20030040510A1, “Selective estrogen receptor modulators in combination with estrogens” (Endorecherche, Inc., priority 2000, published 2003)
Marks after values point to notes of the source that are not given here.

Assays:
[1] = system: human Ishikawa cells; test: Alkaline phosphatase activity in human endometrial adenocarcinoma Ishikawa cells; format: cell-based; conditions: 5 days
Procedure: The human Ishikawa cell line derived from a well differentiated endometrial adenocarcinoma was kindly provided by Dr. Erlio Gurpide, The Mount Sinai Medical Center, New York, N.Y. The Ishikawa cells were routinely maintained in Eagle's Minimum Essential Medium (MEM) containing 5% (vol/vol) FBS (Fetal Bovine Serum) and supplemented with 100 U/ml penicillin, 100 μg/ml streptomycin, 0.1 mM non-essential amino acids solution. Cells were plated in Falcon T75 flasks at a density of 1.5×10^6 cells at 37° C.
Twenty four hours before the start of the experiment, the medium of near confluent Ishikawa cells was replaced by fresh estrogen-free basal medium (EFBM) consisting of a 1:1 (v:v) mixture of phenol red-free Ham's F-12 and Dulbecco's Modified Eagle's Medium (DMEM) supplemented with 100 U/mL penicillin, 100 μg/mL streptomycin, 2 mM glutamine, and 5% FBS treated twice with dextran-coated charcoal to remove endogenous steroids. Cells were then harvested by 0.1% pancreatin (Sigma) and 0.25 mM HEPES, resuspended in EFBM and plated in Falcon 96, well flat-bottomed microtiter plates at a density of 2.2×10^4 cells/well in a volume of 100 μl and allowed to adhere to the surface of the plates for 24 h. Thereafter, medium was replaced with fresh EFBM containing the indicated concentrations of compounds in a final volume of 200 μl. Cells were incubated for five days, with a medium change after 48 h.
At the end of the incubation period, microtiter plates were inverted and growth medium was decanted. The plates were rinsed with 200 μl by well of PBS (0.15M NaCl, 10 mM sodium phosphate, pH 7.4). PBS was then removed from the plates while carefully leaving some residual PBS, and the wash procedure was repeated once. The buffered saline was then decanted, and the inverted plates were blotted gently on a paper towel. Following replacement of the covers, the plates were placed at −80° C. for 15 min followed by thawing at room temperature for 10 min. […] Plates were monitored at 405 nm in an enzyme-linked immunosorbent assay plate reader (BIO-RAD, model 2550 EIA Reader).

[2] = system: endometrial epithelium; test: Thickness of uterine (endometrial) epithelial cells in the mice of Example 8; format: in vivo, nude mice; conditions: for Endometrial epithelium thickness: 161 days
Source text: The 17 groups included two control groups (OVX and OVX+Estrone), seven groups supplemented with an estrone implant and treated with an antiestrogen and eight other groups that received an antiestrogen alone. The estrone implants were then removed from the animals in the ovariectomized control group (OVX) and in groups that were to receive the antiestrogen alone. […] Tamoxifen was purchased from […], Israel) while toremifene citrate was purchased from Orion (Espoo, Finland). […] Animals in both control groups received 0.2 ml of the vehicle alone. The antiestrogen suspensions at the appropriate concentration were prepared each month, stored at 4° C. and used under constant agitation. Powder stock were hermetically stored at 4° C. […] After 161 days of treatment, the remaining animals were anesthetized with isoflurane and killed by exsanguination. […] The uteri were prepared to evaluate endometrial thickness by image analysis performed with Image Pro-Plus (Media Cybernetics, Maryland, USA). […] Hematoxylin- and eosin-stained sections of mice uteri were analysed. […] Mean epithelial cell height was measured in all animals of each group.

[3] = system: ovariectomized rats supplemented with 17β-estradiol; test: EM-652.HCl with oral 17β-estradiol for 2 weeks in OVX rats: uterus, endometrial epithelium, vagina, serum cholesterol (Example 10); format: in vivo, Sprague-Dawley rats; conditions: for Reversal of the effect of E2 on uterine weight: 2 weeks
Procedure: Ten to twelve week-old female Sprague-Dawley rats (Crl:CD(SD)Br) (Charles River Laboratory, St-Constant, Canada) weighing 215-265 g at time of ovariectomy were used. The animals were housed individually in an environmentally-controlled room (temperature: 22±3° C.; humidity: 50±20%; 12-h light-12-h dark cycles, lights on at 07:15 h). The animals were allowed free access to tap water and a certified rodent feed (Lab Diet 5002 (pellet), Ralston Purina, St-Louis, Mo.). The experiment was conducted in an animal facility approved by the Canadian Council on Animal Care (CCAC) and the Association for Assessment and Accreditation of Laboratory Animal Care (AAALAC) in accordance with the CCAC Guide for Care and Use of Experimental Animals.
On the first day of the study, the animals of the appropriate groups were bilaterally ovariectomized (OVX) under isoflurane anesthesia. The tested compounds were then given once daily by oral gavage as a suspension in 0.4% methylcellulose (0.5 ml/rat) from day 1 to day 14 of the study. Animals of groups 1 and 2 received the vehicle alone during the same time period. On day 15 of the study, 4 animals per group were perfused with 10% buffered formalin and tissues were processed for histological examination. The other animals were killed by exsanguination at the abdominal aorta under isoflurane anesthesia. The uterus and vagina were removed, stripped of remaining fat and weighed. A specimen from each uterus was fixed in 10% buffered formalin for determination of the height of endometrial epithelial cells using a computerized-assisted program (Software Image-Pro Plus).
Total cholesterol was measured on serum samples collected from overnight fasted animals using a Boehringer Mannheim Diagnostic Hitachi 911 Analyzer (Boehringer Mannheim Diagnostic Laboratory Systems).

[4] = EM-652.HCl 3 mg/kg + E2 2 mg/kg
[5] = EM-652.HCl 10 mg/kg + E2 2 mg/kg

## CC1=C(c2ccc(O)cc2)[C@H](c2ccc(OCCN3CCCCC3)cc2)Oc2cc(O)ccc21.Cl [EM-652.HCl, (S)-(+)-7-hydroxy-3-(4′-hydroxyphenyl)-4-methyl-2-(4″-(2′″-piperidinoethoxy)phenyl)-2H-1-benzopyran hydrochloride]
[1]; 1 nM E2
  Maximal inhibition of 1 nM E2-induced stimulation of alkaline phosphatase: 98.97 ± 0.174 (18)
[1]; Homo sapiens, 120 h, 1 nM E2, read-out: Inhibition of 1 nM E2-induced stimulation of alkaline phosphatase IC50
  IC50: 1.52 ± 0.22 nM
[1]; Homo sapiens, 120 h, read-out: Maximal stimulation of alkaline phosphatase, % of 1 nM E2 stimulation
  Emax: 1.88 ± 0.26%
[2]; 50 μg daily oral + estrone
  Inhibition of the stimulatory effect of estrone on epithelial height: 70%
[2]; 200 μg daily, absence of estrone
  Height of uterine epithelial cells, of the OVX control group value: 114%
[2]; OVX + E1 + antiestrogen 50 μg daily
  Endometrial epithelium thickness: 25.06^b ± 0.07 μm
[2]; OVX + antiestrogen 200 μg daily, no estrone
  Endometrial epithelium thickness: 20.79 ± 0.10 μm
[3]; EM-652.HCl 0.01 mg/kg to 0.3 mg/kg
  Effect on the inhibitory action of E2 on serum cholesterol: no statistically significant effect
[3]; EM-652.HCl 1.0 mg/kg
  Reduction of the effect of E2 on serum cholesterol: 36%
[3]; EM-652.HCl 3.0 mg/kg
  Reduction of the effect of E2 on serum cholesterol: 30%
[3]; [4]
  Prevention of E2-stimulated endometrial epithelial height: 83%
  Reversal of the effect of E2 on uterine weight: 84%
[3]; EM-652.HCl 3 mg/kg, statistically non significant
  Inhibition of the stimulatory effect of E2 on vaginal weight: 50%
[3]; EM-652.HCl 10 mg/kg
  Effect on the effect of E2 on vaginal weight: complete reversal
  Reduction of the effect of E2 on serum cholesterol: 50%
[3]; [5]
  Prevention of E2-stimulated endometrial epithelial height: 93%
  Reversal of the effect of E2 on uterine weight: 87%
[3]; EM-652.HCl up to 1 mg/kg
  Inhibitory effect on E2-stimulated vaginal weight: no significant inhibitory effect
